This assay has as its target T1, F508delCFTR (Homo sapiens, UniProt P13569, DEL508-508).
T1 construct: expressed in transfected cells; host or cells: CFBE41o- (human lung derived epithelial cell line), doxycycline-inducible expression
Put plainly: Cell Surface Expression-Horse Radish Peroxidase (CSE-HRP) assay. In kind it is cell-based. Conditions: CFBE41o-F508delCFTR-HRP cells; for Maximum % activity (with co-corrector): with co-corrector (2 μM); for Maximum % activity (with co-corrector) / Maximum % activity (without co-corrector): normalized to on-plate positive control, highest concentration 20 μM. An outline of the steps:
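CFBE41o- cells expressed F508delCFTR with HRP in the fourth exofacial loop, induced by 0.5 μg/mL doxycycline for 72 h at 37 °C. Compounds alone or with 2 μM co-corrector ran 18–24 h at 33 °C, 8-point 3-fold from 20 μM. Washed-cell luminol luminescence was normalized to DMSO and positive control, fitted sigmoidally for EC50 (three plates).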

The mark [1] stands for this setting: test compound without co-corrector, 18-24 hours at 33° C., read-out: EC50 (without co-corrector).
Where [2] appears, read: with co-corrector (2 μM of 3-[(2R,4R)-4-({[1-(2,2-difluoro-1,3-benzodioxol-5-yl)cyclopropyl]carbonyl}amino)-7-methoxy-3,4-dihydro-2H-chromen-2-yl]benzoic acid), read-out: EC50 (with co-corrector).

Structures are written as SMILES. pEC50: −log10 of the molar value. Read-outs that look alike come from different tables or passages of the source.

T1 sequence (P13569 with tags, fused parts or gaps DEL508-508): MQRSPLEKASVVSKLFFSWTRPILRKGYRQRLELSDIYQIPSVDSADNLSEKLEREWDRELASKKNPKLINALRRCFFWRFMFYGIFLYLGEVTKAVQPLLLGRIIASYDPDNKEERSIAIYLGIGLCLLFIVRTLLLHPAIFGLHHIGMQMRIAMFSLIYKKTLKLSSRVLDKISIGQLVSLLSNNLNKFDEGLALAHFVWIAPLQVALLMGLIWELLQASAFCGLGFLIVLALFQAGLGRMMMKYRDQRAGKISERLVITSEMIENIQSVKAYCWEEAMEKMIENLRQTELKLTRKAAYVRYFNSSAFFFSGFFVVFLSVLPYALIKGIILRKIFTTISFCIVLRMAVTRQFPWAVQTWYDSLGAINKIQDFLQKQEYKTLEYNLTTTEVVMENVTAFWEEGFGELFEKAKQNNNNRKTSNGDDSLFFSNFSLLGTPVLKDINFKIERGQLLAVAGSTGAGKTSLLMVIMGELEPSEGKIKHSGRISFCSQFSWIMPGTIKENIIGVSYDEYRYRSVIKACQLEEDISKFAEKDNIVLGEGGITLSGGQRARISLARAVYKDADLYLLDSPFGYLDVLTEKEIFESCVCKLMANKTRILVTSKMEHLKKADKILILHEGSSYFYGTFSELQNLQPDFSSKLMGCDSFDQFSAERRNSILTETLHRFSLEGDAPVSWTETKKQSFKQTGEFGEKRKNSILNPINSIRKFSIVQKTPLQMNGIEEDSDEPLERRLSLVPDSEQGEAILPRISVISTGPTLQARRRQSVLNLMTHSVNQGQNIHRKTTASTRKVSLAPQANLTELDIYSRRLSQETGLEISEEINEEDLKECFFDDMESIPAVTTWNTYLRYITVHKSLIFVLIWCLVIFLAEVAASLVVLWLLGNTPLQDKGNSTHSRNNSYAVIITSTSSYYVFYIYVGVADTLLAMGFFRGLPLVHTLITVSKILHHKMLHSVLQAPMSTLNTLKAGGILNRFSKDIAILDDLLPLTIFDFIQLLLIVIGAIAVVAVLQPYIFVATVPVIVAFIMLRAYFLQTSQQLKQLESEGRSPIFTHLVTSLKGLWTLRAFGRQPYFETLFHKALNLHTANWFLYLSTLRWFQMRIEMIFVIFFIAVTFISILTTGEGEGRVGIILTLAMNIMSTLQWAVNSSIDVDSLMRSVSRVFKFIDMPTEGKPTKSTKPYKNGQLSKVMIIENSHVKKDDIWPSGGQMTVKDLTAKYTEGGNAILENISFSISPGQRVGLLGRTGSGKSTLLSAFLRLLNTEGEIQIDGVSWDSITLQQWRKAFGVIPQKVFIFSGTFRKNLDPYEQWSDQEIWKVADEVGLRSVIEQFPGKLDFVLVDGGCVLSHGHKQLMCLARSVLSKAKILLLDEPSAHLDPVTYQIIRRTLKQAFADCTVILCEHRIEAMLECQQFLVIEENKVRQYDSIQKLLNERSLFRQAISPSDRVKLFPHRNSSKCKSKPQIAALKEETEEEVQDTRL

As for `COc1ccc(C(F)(F)F)cc1CO[C@H]1[C@H](C(C)(C)C)[C@@H](C(=O)O)N(C(=O)[C@@H]2CCC[C@@H](OC)C2)[C@H]1c1ccccc1` [Example 31, (2S,3R,4S,5S)-3-tert-butyl-1-[(1R,3R)-3-methoxycyclohexane-1-carbonyl]-4-{[2-methoxy-5-(trifluoromethyl)phenyl]methoxy}-5-phenylpyrrolidine-2-carboxylic acid], the “Maximum % activity (with co-corrector)” value is listed as “+++ (≥350)” and the “Maximum % activity (without co-corrector)” value was “+++ (≥200)”. Also, under setting [1], the pEC50 – broadly, −log10 of the EC50, conventionally taken in molar units – was 5.00 to 6.00. The pEC50 under setting [2] was above 6.00.

`COc1cc(C(F)(F)F)ccc1CO[C@H]1[C@H](C(C)(C)C)[C@@H](C(=O)O)N(C(=O)[C@H]2CCC[C@H](OC)C2)[C@H]1c1ccccc1` [Example 32, (2S,3R,4S,5S)-3-tert-butyl-1-[(1S,3S)-3-methoxycyclohexane-1-carbonyl]-4-{[2-methoxy-4-(trifluoromethyl)phenyl]methoxy}-5-phenylpyrrolidine-2-carboxylic acid]: the “Maximum % activity (with co-corrector)” value was “+++ (≥350)” and the “Maximum % activity (without co-corrector)” value is “+ (<100)”. For the same compound, the pEC50 under setting [1] is 5.00 to 6.00. Besides, the pEC50 under setting [2] was 5.00 to 6.00.

On to `COc1cc(C(F)(F)F)ccc1CO[C@H]1[C@H](C(C)(C)C)[C@@H](C(=O)O)N(C(=O)[C@@H]2CCC[C@@H](OC)C2)[C@H]1c1ccccc1` [Example 33, (2S,3R,4S,5S)-3-tert-butyl-1-[(1R,3R)-3-methoxycyclohexane-1-carbonyl]-4-{[2-methoxy-4-(trifluoromethyl)phenyl]methoxy}-5-phenylpyrrolidine-2-carboxylic acid], for which the “Maximum % activity (with co-corrector)” value is on record as “+++ (≥350)”; the “Maximum % activity (without co-corrector)” value was “++ (≥100 and <200)”. Also, under setting [1], the pEC50 was 5.00 to 6.00. For the same compound, the pEC50 under setting [2] was 5.00 to 6.00.

On to `COc1ccc(Br)cc1CO[C@H]1[C@H](C(C)(C)C)[C@@H](C(=O)O)N(C(=O)OC(C)C)[C@H]1c1ccccc1` [Example 36, (2S,3R,4S,5S)-4-[(5-bromo-2-methoxyphenyl)methoxy]-3-tert-butyl-5-phenyl-1-{[(propan-2-yl)oxy]carbonyl}pyrrolidine-2-carboxylic acid], for which the “Maximum % activity (with co-corrector)” value is listed as “+++ (≥350)”; the “Maximum % activity (without co-corrector)” value was “++ (≥100 and <200)”. Moreover, the pEC50 under setting [1] is 5.00 to 6.00. For the same compound, under setting [2], the pEC50 is 5.00 to 6.00.

With `COc1ccc(Br)cc1CO[C@H]1[C@H](C(C)(C)C)[C@@H](C(=O)O)N(C(=O)[C@@H]2CCC[C@@H](OC)C2)[C@H]1c1ccccc1` [Example 37, (2S,3R,4S,5S)-4-[(5-bromo-2-methoxyphenyl)methoxy]-3-tert-butyl-1-[(1R,3R)-3-methoxycyclohexane-1-carbonyl]-5-phenylpyrrolidine-2-carboxylic acid], the “Maximum % activity (with co-corrector)” value was “+++ (≥350)” and the “Maximum % activity (without co-corrector)” value is reported as “+++ (≥200)”. Moreover, the pEC50 under setting [1] was 5.00 to 6.00. The pEC50 under setting [2] was 5.00 to 6.00.

For the compound `COc1ccc(-c2ccccc2)cc1CO[C@H]1[C@H](C(C)(C)C)[C@@H](C(=O)O)N(C(=O)OC(C)C)[C@H]1c1ccccc1` [Example 38, (2S,3R,4S,5S)-3-tert-butyl-4-[(4-methoxy[1,1′-biphenyl]-3-yl)methoxy]-5-phenyl-1-{[(propan-2-yl)oxy]carbonyl}pyrrolidine-2-carboxylic acid], the “Maximum % activity (with co-corrector)” value is on record as “+++ (≥350)”; the “Maximum % activity (without co-corrector)” value was “++ (≥100 and <200)”. Also, the pEC50 under setting [1] is 5.00 to 6.00. The pEC50 under setting [2] was 5.00 to 6.00.

`COc1ccc(-c2ccccc2)cc1CO[C@H]1[C@H](C(C)(C)C)[C@@H](C(=O)O)N(C(=O)[C@@H]2CCC[C@@H](OC)C2)[C@H]1c1ccccc1` [Example 39, (2S,3R,4S,5S)-3-tert-butyl-4-[(4-methoxy[1,1′-biphenyl]-3-yl)methoxy]-1-[(1R,3R)-3-methoxycyclohexane-1-carbonyl]-5-phenylpyrrolidine-2-carboxylic acid]: the “Maximum % activity (with co-corrector)” value is recorded as “+++ (≥350)” and the “Maximum % activity (without co-corrector)” value is given as “+++ (≥200)”. Further, the pEC50 under setting [1] was 5.00 to 6.00. For the same compound, under setting [2], the pEC50 is 5.00 to 6.00.

For `COc1ncc(Br)cc1CO[C@H]1[C@H](C(C)(C)C)[C@@H](C(=O)O)N(C(=O)OC(C)C)[C@H]1c1ccccc1` [Example 40, (2S,3R,4S,5S)-4-[(5-bromo-2-methoxypyridin-3-yl)methoxy]-3-tert-butyl-5-phenyl-1-{[(propan-2-yl)oxy]carbonyl}pyrrolidine-2-carboxylic acid], the “Maximum % activity (with co-corrector)” value is recorded as “+++ (≥350)”; the “Maximum % activity (without co-corrector)” value is “++ (≥100 and <200)”. Further, the pEC50 under setting [1] was 5.00 to 6.00. In addition, the pEC50 under setting [2] is 5.00 to 6.00.

As to `COc1ncc(C(F)(F)F)cc1CO[C@H]1[C@H](C(C)(C)C)[C@@H](C(=O)O)N(C(=O)C2CCCCC2)[C@H]1c1ccccc1` [Example 41, (2S,3R,4S,5S)-3-tert-butyl-1-(cyclohexanecarbonyl)-4-{[2-methoxy-5-(trifluoromethyl)pyridin-3-yl]methoxy}-5-phenylpyrrolidine-2-carboxylic acid], the “Maximum % activity (with co-corrector)” value is “+++ (≥350)”; the “Maximum % activity (without co-corrector)” value was “++ (≥100 and <200)”. Besides, under setting [1], the pEC50 is above 6.00. Besides, the pEC50 under setting [2] is above 6.00.

Consider `COc1ncc(-c2ccccc2)cc1CO[C@H]1[C@H](C(C)(C)C)[C@@H](C(=O)O)N(C(=O)OC(C)C)[C@H]1c1ccccc1` [Example 42, (2S,3R,4S,5S)-3-tert-butyl-4-[(2-methoxy-5-phenylpyridin-3-yl)methoxy]-5-phenyl-1-{[(propan-2-yl)oxy]carbonyl}pyrrolidine-2-carboxylic acid], for which the “Maximum % activity (with co-corrector)” value is reported as “+++ (≥350)” and the “Maximum % activity (without co-corrector)” value is listed as “+ (<100)”. Moreover, under setting [1], the pEC50 was 5.00 to 6.00. Moreover, the pEC50 under setting [2] is 5.00 to 6.00.

With `COc1ncc(C2CCCCC2)cc1CO[C@H]1[C@H](C(C)(C)C)[C@@H](C(=O)O)N(C(=O)OC(C)C)[C@H]1c1ccccc1` [Example 43, (2S,3R,4S,5S)-3-tert-butyl-4-[(5-cyclohexyl-2-methoxypyridin-3-yl)methoxy]-5-phenyl-1-{[(propan-2-yl)oxy]carbonyl}pyrrolidine-2-carboxylic acid], the “Maximum % activity (with co-corrector)” value was “+++ (≥350)” and the “Maximum % activity (without co-corrector)” value is on record as “+ (<100)”. Also, the pEC50 under setting [1] is 5.00 to 6.00. Moreover, the pEC50 under setting [2] was 5.00 to 6.00.

For `COc1ncc(C2CCCC2)cc1CO[C@H]1[C@H](C(C)(C)C)[C@@H](C(=O)O)N(C(=O)OC(C)C)[C@H]1c1ccccc1` [Example 44, (2S,3R,4S,5S)-3-tert-butyl-4-[(5-cyclopentyl-2-methoxypyridin-3-yl)methoxy]-5-phenyl-1-{[(propan-2-yl)oxy]carbonyl}pyrrolidine-2-carboxylic acid], the “Maximum % activity (with co-corrector)” value is listed as “+++ (≥350)” and the “Maximum % activity (without co-corrector)” value is given as “+ (<100)”. The pEC50 under setting [1] was 5.00 to 6.00. Further, the pEC50 under setting [2] was 5.00 to 6.00.

Consider `COc1ncc(C2CCC2)cc1CO[C@H]1[C@H](C(C)(C)C)[C@@H](C(=O)O)N(C(=O)OC(C)C)[C@H]1c1ccccc1` [Example 45, (2S,3R,4S,5S)-3-tert-butyl-4-[(5-cyclobutyl-2-methoxypyridin-3-yl)methoxy]-5-phenyl-1-{[(propan-2-yl)oxy]carbonyl}pyrrolidine-2-carboxylic acid], for which the “Maximum % activity (with co-corrector)” value is listed as “+++ (≥350)”; the “Maximum % activity (without co-corrector)” value was “++ (≥100 and <200)”. Moreover, under setting [1], the pEC50 is 5.00 to 6.00. For the same compound, under setting [2], the negative logarithm of the EC50 (pEC50) is 5.00 to 6.00.

Regarding `COc1ccc(C(C)(C)C)cc1CO[C@H]1[C@H](C(C)(C)C)[C@@H](C(=O)O)N(C(=O)[C@@H]2CCC[C@@H](OC)C2)[C@H]1c1ccccc1` [Example 46, (2S,3R,4S,5S)-3-tert-butyl-4-[(5-tert-butyl-2-methoxyphenyl)methoxy]-1-[(1R,3R)-3-methoxycyclohexane-1-carbonyl]-5-phenylpyrrolidine-2-carboxylic acid], the “Maximum % activity (with co-corrector)” value is on record as “+++ (≥350)” and the “Maximum % activity (without co-corrector)” value was “+++ (≥200)”. Moreover, the pEC50 under setting [1] was above 6.00. Besides, the pEC50 under setting [2] is above 6.00.

With `COc1ccc(C(C)(C)C)cc1CO[C@H]1[C@H](C(C)(C)C)[C@@H](C(=O)O)N(C(=O)OC(C)C)[C@H]1c1ccccc1` [Example 47, (2S,3R,4S,5S)-3-tert-butyl-4-[(5-tert-butyl-2-methoxyphenyl)methoxy]-5-phenyl-1-{[(propan-2-yl)oxy]carbonyl}pyrrolidine-2-carboxylic acid], the “Maximum % activity (with co-corrector)” value is reported as “+++ (≥350)” and the “Maximum % activity (without co-corrector)” value is listed as “+++ (≥200)”. For the same compound, the pEC50 under setting [1] is 5.00 to 6.00. Further, the pEC50 under setting [2] is 5.00 to 6.00.

Consider `COc1ncc(C(F)(F)F)cc1CO[C@H]1[C@H](C(C)(C)C)[C@@H](C(=O)O)N(C(=O)C2CCCCC2)[C@H]1c1ccccc1F` [Example 48, (2S,3R,4S,5S)-3-tert-butyl-1-(cyclohexanecarbonyl)-5-(2-fluorophenyl)-4-{[2-methoxy-5-(trifluoromethyl)pyridin-3-yl]methoxy}pyrrolidine-2-carboxylic acid], for which the “Maximum % activity (with co-corrector)” value is given as “+++ (≥350)”; the “Maximum % activity (without co-corrector)” value was “++ (≥100 and <200)”. The pEC50 under setting [1] was 5.00 to 6.00. Further, the pEC50 under setting [2] was 5.00 to 6.00.

The values are drawn from patent publication US10399940B2, “Substituted pyrrolidines and methods of use” (AbbVie S.à.r.l., priority 2016, dated 2019).
